Measured values: ChEMBL document CHEMBL5344455, “Discovery and Characterization of Active CBP/EP300 Degraders Targeting the HAT Domain” (ACS Med Chem Lett, 2024)
Activity calls are given as the source filed them. The rule behind the calls is not given here.

Legend:
[1] = biological target: T1, Protein cereblon/CREB-binding protein (Homo sapiens, UniProt Q92793+Q96SW2); test: Protac activity at CRBN/CBP degradation in human LP-1 cells assessed as induction of ternary complex formation by measuring fluorescent foci at 2 uM after 6 hrs by fluorescence microscopic analysis; assay type: cell-based
[2] = biological target: T2, Protein cereblon/Histone acetyltransferase p300 (Homo sapiens) (UniProt Q09472+Q96SW2); test: Protac activity at CRBN/EP300 in human LP-1 cells assessed as protein remaining at 5 uM after 16 hrs by Western blotting analysis; assay type: cell-based
LP-1 [3] = test: Antiproliferative activity against human LP-1 cells assessed as growth inhibition incubated for 3 days by fluorescence based assay; assay type: functional; conditions: LP-1, 72 h, time 3 day
[4] = biological target: T1, Protein cereblon/CREB-binding protein; test: Protac activity at CRBN/CBP in human LP-1 cells assessed as protein remaining at 5 uM after 16 hrs by Western blotting analysis; assay type: cell-based
Target sequence in this assay (Q92793 2-2442 limits assumed): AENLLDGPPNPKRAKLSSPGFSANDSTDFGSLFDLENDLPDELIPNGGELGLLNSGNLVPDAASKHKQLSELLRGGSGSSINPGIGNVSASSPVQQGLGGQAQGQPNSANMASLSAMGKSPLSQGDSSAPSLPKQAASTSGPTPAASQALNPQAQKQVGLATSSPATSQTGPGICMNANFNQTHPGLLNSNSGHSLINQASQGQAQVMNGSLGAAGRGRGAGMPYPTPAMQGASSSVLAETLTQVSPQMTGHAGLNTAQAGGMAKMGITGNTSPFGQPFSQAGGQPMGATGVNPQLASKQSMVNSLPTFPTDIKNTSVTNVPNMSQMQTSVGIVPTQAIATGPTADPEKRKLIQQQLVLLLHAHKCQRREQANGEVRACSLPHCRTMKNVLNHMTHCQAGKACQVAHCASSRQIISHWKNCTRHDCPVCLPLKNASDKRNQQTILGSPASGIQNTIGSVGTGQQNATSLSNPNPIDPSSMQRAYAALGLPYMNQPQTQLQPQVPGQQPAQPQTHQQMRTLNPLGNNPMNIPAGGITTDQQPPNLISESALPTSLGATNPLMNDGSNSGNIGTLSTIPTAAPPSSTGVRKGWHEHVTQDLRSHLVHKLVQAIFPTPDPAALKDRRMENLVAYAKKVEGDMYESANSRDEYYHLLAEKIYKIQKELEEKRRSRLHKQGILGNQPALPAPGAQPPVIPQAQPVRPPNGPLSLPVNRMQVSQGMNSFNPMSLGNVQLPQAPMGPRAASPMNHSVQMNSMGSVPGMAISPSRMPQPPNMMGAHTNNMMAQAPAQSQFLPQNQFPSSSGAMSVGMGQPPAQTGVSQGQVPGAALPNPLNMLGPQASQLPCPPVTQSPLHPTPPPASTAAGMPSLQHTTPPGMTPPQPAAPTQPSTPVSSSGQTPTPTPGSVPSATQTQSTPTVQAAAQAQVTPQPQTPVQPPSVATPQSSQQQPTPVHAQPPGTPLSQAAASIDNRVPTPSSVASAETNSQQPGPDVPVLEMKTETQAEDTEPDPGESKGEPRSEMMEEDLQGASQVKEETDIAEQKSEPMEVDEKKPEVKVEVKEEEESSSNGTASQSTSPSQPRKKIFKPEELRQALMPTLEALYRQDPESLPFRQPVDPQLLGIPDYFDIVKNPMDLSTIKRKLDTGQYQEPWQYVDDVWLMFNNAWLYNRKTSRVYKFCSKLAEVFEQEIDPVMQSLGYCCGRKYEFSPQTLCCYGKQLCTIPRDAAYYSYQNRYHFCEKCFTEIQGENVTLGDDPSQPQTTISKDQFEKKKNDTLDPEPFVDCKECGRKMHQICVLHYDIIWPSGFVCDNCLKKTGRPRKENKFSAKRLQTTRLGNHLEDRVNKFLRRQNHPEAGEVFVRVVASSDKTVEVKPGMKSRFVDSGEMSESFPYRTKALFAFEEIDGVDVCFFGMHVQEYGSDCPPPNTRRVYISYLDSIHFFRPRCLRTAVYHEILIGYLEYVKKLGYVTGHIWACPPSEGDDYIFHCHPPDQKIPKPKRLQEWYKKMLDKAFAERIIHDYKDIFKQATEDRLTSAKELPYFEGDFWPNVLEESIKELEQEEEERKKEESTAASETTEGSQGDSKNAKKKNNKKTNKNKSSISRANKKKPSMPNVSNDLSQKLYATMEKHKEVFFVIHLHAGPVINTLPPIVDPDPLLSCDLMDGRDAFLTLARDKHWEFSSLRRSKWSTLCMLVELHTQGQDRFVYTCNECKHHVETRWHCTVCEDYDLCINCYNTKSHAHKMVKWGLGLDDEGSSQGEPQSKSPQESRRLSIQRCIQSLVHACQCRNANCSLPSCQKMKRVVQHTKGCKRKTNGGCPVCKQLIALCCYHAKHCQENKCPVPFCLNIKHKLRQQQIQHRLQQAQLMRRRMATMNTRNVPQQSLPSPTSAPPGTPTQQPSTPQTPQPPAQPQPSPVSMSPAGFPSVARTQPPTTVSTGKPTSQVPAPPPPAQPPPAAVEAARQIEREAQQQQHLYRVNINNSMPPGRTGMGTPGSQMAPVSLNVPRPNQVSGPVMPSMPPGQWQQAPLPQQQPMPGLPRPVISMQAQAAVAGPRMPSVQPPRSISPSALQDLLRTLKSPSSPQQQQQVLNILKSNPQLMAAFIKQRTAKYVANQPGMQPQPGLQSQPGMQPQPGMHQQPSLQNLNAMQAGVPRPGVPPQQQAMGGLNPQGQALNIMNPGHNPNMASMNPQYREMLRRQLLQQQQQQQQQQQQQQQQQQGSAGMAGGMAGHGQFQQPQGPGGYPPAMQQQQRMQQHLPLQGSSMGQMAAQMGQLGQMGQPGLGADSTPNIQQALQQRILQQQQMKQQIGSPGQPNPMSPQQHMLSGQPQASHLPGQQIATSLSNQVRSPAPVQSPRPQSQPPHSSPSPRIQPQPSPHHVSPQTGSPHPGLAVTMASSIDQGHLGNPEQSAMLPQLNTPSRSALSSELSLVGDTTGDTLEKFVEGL
Target sequence in this assay (Q96SW2 whole entry partner): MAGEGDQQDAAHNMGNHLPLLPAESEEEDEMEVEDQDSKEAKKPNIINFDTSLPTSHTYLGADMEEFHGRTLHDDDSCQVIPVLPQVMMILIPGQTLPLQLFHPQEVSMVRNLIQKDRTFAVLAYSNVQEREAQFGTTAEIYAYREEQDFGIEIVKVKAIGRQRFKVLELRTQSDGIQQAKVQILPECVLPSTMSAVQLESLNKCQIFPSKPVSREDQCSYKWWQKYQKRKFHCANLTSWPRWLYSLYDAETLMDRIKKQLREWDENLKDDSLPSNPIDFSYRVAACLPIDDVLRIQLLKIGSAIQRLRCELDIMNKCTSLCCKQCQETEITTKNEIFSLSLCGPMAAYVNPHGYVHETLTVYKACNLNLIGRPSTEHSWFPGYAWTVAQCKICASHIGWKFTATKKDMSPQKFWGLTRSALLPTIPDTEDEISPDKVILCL

[5] = biological target: von Hippel-Lindau disease tumor suppressor/Histone acetyltransferase p300 (Homo sapiens) (UniProt Q09472+P40337); test: Protac activity at VHL/EP300 in human LP-1 cells assessed as protein remaining at 5 uM after 16 hrs by Western blotting analysis; assay type: cell-based
[6] = biological target: von Hippel-Lindau disease tumor suppressor/CREB-binding protein (Homo sapiens) (UniProt Q92793+P40337); test: Protac activity at VHL/CBP in human LP-1 cells assessed as protein remaining at 5 uM after 16 hrs by Western blotting analysis; assay type: cell-based
CREB-binding protein = CREB-binding protein (Homo sapiens, UniProt Q92793); test: Inhibition of CBP (unknown origin) by radiometric assay
LP-1 [7] = test: Protac activity at IAP/CBP in human LP-1 cells assessed as protein remaining at 5 uM after 16 hrs by Western blotting analysis; assay type: cell-based
LP-1 [8] = test: Protac activity at IAP/EP300 in human LP-1 cells assessed as protein remaining at 5 uM after 16 hrs by Western blotting analysis; assay type: cell-based
[9] = biological target: T2, Protein cereblon/Histone acetyltransferase p300 (Homo sapiens); test: Protac activity at CRBN/EP300 in human MM1.S cells at 5 uM after 16 hrs by Western blotting analysis; assay type: cell-based
[10] = biological target: T2, Protein cereblon/Histone acetyltransferase p300 (Homo sapiens); test: Protac activity at CRBN/EP300 in human LP-1 cells at 5 uM after 16 hrs by Western blotting analysis; assay type: cell-based
[11] = biological target: T1, Protein cereblon/CREB-binding protein; test: Protac activity at CRBN/CBP in human MM1.S cells at 5 uM after 16 hrs by Western blotting analysis; assay type: cell-based
Target sequence in this assay (Q92793 2-2442 limits assumed): as the sequence (Q92793 2-2442 limits assumed) above
Target sequence in this assay (Q96SW2 whole entry partner): as the sequence (Q96SW2 whole entry partner) above

[12] = biological target: T1, Protein cereblon/CREB-binding protein; test: Protac activity at CRBN/CBP in human LP-1 cells at 5 uM after 16 hrs by Western blotting analysis; assay type: cell-based
Target sequence in this assay (Q92793 2-2442 limits assumed): as the sequence (Q92793 2-2442 limits assumed) above
Target sequence in this assay (Q96SW2 whole entry partner): as the sequence (Q96SW2 whole entry partner) above

[13] = biological target: T1, Protein cereblon/CREB-binding protein; test: Protac activity at CRBN/CBP in human LP-1 cells at 5 uM after 8 to 48 hrs by Western blotting analysis; assay type: cell-based; conditions: time 8-48 hrs
Target sequence in this assay (Q92793 2-2442 limits assumed): as the sequence (Q92793 2-2442 limits assumed) above
Target sequence in this assay (Q96SW2 whole entry partner): as the sequence (Q96SW2 whole entry partner) above

HL-60(TB) = test: Antiproliferative activity against human HL-60(TB) cells; assay type: functional, cell-based
MOLT-4 = test: Antiproliferative activity against human MOLT-4 cells; assay type: functional, cell-based
RPMI-8226 = test: Antiproliferative activity against human RPMI-8226 cells; assay type: functional, cell-based
CCRF-CEM = test: Antiproliferative activity against human CCRF-CEM cells; assay type: functional, cell-based
[14] = biological target: T1, Protein cereblon/CREB-binding protein; test: Protac activity at CRBN/CBP in human LP-1 cells after 16 hrs by Western blotting analysis; assay type: cell-based
SR = test: Antiproliferative activity against human SR cells; assay type: functional, cell-based
[15] = biological target: T1, Protein cereblon/CREB-binding protein; test: Protac activity at CRBN/CBP degradation in human LP-1 cells at 5 uM preincubated with pomalidomide for 1 hr followed by compound addition and measured after 16 hrs by Western blotting analysis; assay type: cell-based
Target sequence in this assay (Q92793 2-2442 limits assumed): as the sequence (Q92793 2-2442 limits assumed) above
Target sequence in this assay (Q96SW2 whole entry partner): as the sequence (Q96SW2 whole entry partner) above

K562 = test: Antiproliferative activity against human K562 cells; assay type: functional, cell-based
[16] = biological target: T1, Protein cereblon/CREB-binding protein; test: Protac activity at CRBN/CBP degradation in human LP-1 cells at 5 uM preincubated with CPI-1612 for 1 hr followed by compound addition and measured after 16 hrs by Western blotting analysis; assay type: cell-based
Target sequence in this assay (Q92793 2-2442 limits assumed): as the sequence (Q92793 2-2442 limits assumed) above
Target sequence in this assay (Q96SW2 whole entry partner): as the sequence (Q96SW2 whole entry partner) above

[17] = biological target: T1, Protein cereblon/CREB-binding protein; test: Protac activity at CRBN/CBP degradation in human LP-1 cells at 5 uM preincubated with MG-132 for 1 hr followed by compound addition and measured after 16 hrs by Western blotting analysis; assay type: cell-based

## C[C@H](CN[C@@H](C(=O)Nc1ccc(-c2cnn(CCCC(=O)NCCOCCOCCOCCOCCOCCOCCNc3cccc4c3C(=O)N(C3CCC(=O)N(C)C3=O)C4=O)c2)cn1)c1ccccc1)c1ccc(C#N)cc1 (some centres not stated)
[1]
  Activity: inactive

## C[C@H](CN[C@@H](C(=O)Nc1ccc(-c2cnn(CCCC(=O)NCCCCCCCCNc3ccc4c(c3)C(=O)N(C3CCC(=O)NC3=O)C4=O)c2)cn1)c1ccccc1)c1ccc(C#N)cc1 (some centres not stated)
[2]
  Activity: 95%
LP-1 [3]
  GI50: 0.26 µM
[4]
  Activity: > 95%

## Cc1ncsc1-c1ccc(CNC(=O)[C@H]2C[C@H](O)CN2C(=O)[C@H](NC(=O)CCOCCOCCOCCNC(=O)CCCn2cc(-c3ccc(NC(=O)[C@H](NC[C@@H](C)c4ccc(C#N)cc4)c4ccccc4)nc3)cn2)C(C)(C)C)cc1
[5]
  Activity: 89%
[6]
  Activity: > 95%
LP-1 [3]
  GI50: 2.2 µM

## C[C@H](CN[C@@H](C(=O)Nc1ccc(-c2cnn(CCCC(=O)NCCOCCOCCOCCOCCOCCOCCOCCNc3cccc4c3C(=O)N(C3CCC(=O)NC3=O)C4=O)c2)cn1)c1ccccc1)c1ccc(C#N)cc1 (some centres not stated)
[2]
  Activity: Active
[4]
  Activity: Active

## Nc1cccc2c1C(=O)N(C1CCC(=O)NC1=O)C2=O (configuration not stated) [POMALIDOMIDE]
LP-1 [3]
  GI50: > 10 µM

## COCCNC(=O)CCCCn1cc(-c2ccc(NC(=O)C(NCC(C)c3ccc(C#N)cc3)c3ccccc3)nc2)cn1 (configuration not stated)
CREB-binding protein
  IC50: 0.819 µM

## CN[C@@H](C)C(=O)N[C@H](C(=O)N1C[C@@H](NC(=O)CCCCCCCNC(=O)CCCn2cc(-c3ccc(NC(=O)[C@H](NC[C@@H](C)c4ccc(C#N)cc4)c4ccccc4)nc3)cn2)C[C@H]1C(=O)Nc1c(F)cccc1F)C(C)(C)C
LP-1 [7]
  Activity: > 95%
LP-1 [8]
  Activity: > 95%
LP-1 [3]
  GI50: 2.3 µM

## C[C@H](CN[C@@H](C(=O)Nc1ccc(-c2cnn(CCCC(=O)NCCOCCOCCOCCOCCOCCNc3cccc4c3C(=O)N(C3CCC(=O)NC3=O)C4=O)c2)cn1)c1ccccc1)c1ccc(C#N)cc1 (some centres not stated)
[2]
  Activity: Active
[4]
  Activity: Active

## Cc1ncsc1-c1ccc(CNC(=O)[C@@H]2C[C@@H](O)CN2C(=O)[C@@H](NC(=O)COCCOCCNC(=O)CCCn2cc(-c3ccc(NC(=O)[C@H](NC[C@@H](C)c4ccc(C#N)cc4)c4ccccc4)nc3)cn2)C(C)(C)C)cc1
[5]
  Activity: > 95%
[6]
  Activity: > 95%
LP-1 [3]
  GI50: 1 µM

## C[C@H](CN[C@@H](C(=O)Nc1ccc(-c2cnn(CCCC(=O)NCCOCCOCCNc3cccc4c3C(=O)N(C3CCC(=O)NC3=O)C4=O)c2)cn1)c1ccccc1)c1ccc(C#N)cc1 (some centres not stated)
[2]
  Activity: 79%
LP-1 [3]
  GI50: 0.33 µM
[4]
  Activity: > 95%

## CCOCCNC(=O)CCCn1cc(-c2ccc(NC(=O)C(NCC(C)c3ccc(C#N)cc3)c3ccccc3)nc2)cn1 (configuration not stated)
CREB-binding protein
  IC50: 1.01 µM

## C[C@H](CN[C@@H](C(=O)Nc1ccc(-c2cnn(CCCC(=O)NCCCCCCCCNc3cccc4c3C(=O)N(C3CCC(=O)NC3=O)C4=O)c2)cn1)c1ccccc1)c1ccc(C#N)cc1 (some centres not stated)
[2]
  Activity: 79%
LP-1 [3]
  GI50: 0.47 µM
[4]
  Activity: 87%

## CN[C@@H](C)C(=O)N[C@H](C(=O)N1C[C@@H](NC(=O)CCOCCOCCOCCNC(=O)CCCn2cc(-c3ccc(NC(=O)[C@H](NC[C@@H](C)c4ccc(C#N)cc4)c4ccccc4)nc3)cn2)C[C@H]1C(=O)Nc1c(F)cccc1F)C(C)(C)C
LP-1 [7]
  Activity: > 95%
LP-1 [8]
  Activity: > 95%
LP-1 [3]
  GI50: 0.5 µM

## Cc1ncsc1-c1ccc(CNC(=O)[C@@H]2C[C@@H](O)CN2C(=O)[C@@H](NC(=O)CCCCCCCNC(=O)CCCn2cc(-c3ccc(NC(=O)[C@H](NC[C@@H](C)c4ccc(C#N)cc4)c4ccccc4)nc3)cn2)C(C)(C)C)cc1
[5]
  Activity: > 95%
[6]
  Activity: > 95%
LP-1 [3]
  GI50: 4.7 µM

## C[C@H](CN[C@@H](C(=O)Nc1ccc(-c2cnn(CCCC(=O)NCCOCCOCCOCCNc3cccc4c3C(=O)N(C3CCC(=O)NC3=O)C4=O)c2)cn1)c1ccccc1)c1ccc(C#N)cc1 (some centres not stated)
[2]
  Activity: 76%
LP-1 [3]
  GI50: 0.5 µM
[4]
  Activity: > 95%

## CCOCCNC(=O)CCn1cc(-c2ccc(NC(=O)C(NCC(C)c3ccc(C#N)cc3)c3ccccc3)nc2)cn1 (configuration not stated)
CREB-binding protein
  IC50: 1.87 µM

## C[C@H](CN[C@@H](C(=O)Nc1ccc(-c2cnn(C)c2)cn1)c1ccccc1)c1ccc(C#N)cc1
CREB-binding protein
  IC50: 0.116 µM
LP-1 [3]
  GI50: 0.005 µM

## C[C@H](N(Cc1ccc(F)cc1)C(=O)CN1C(=O)O[C@@]2(CCc3cc(NC(=O)CCCCCCCCCCCNc4ccc5c(c4)C(=O)N(C4CCC(=O)NC4=O)C5=O)ccc32)C1=O)C(F)(F)F (some centres not stated)
[9]
  Activity: inactive
[10]
  Activity: inactive
[11]
  Activity: inactive
[12]
  Activity: inactive

## C[C@H](CN[C@@H](C(=O)Nc1ccc(-c2cnn(CCCC(=O)NCCOCCOCCOCCOCCOCCOCCNc3cccc4c3C(=O)N(C3CCC(=O)NC3=O)C4=O)c2)cn1)c1ccccc1)c1ccc(C#N)cc1 (some centres not stated)
[13]
  Activity: Active
HL-60(TB)
  Activity: Active
[2]
  Activity: Active
MOLT-4
  Activity: Active
[11]
  Activity: Active
[1]
  EC50: 1.2 µM
RPMI-8226
  Activity: Active
CCRF-CEM
  Activity: Active
[14]
  EC50: 1.3 µM
SR
  Activity: Active
[15]
  Activity: Active
K562
  Activity: Active
[16]
  Activity: Active
[17]
  Activity: Active
[4]
  Activity: Active

## CN[C@@H](C)C(=O)N[C@H](C(=O)N1C[C@@H](NC(=O)CCOCCOCCNC(=O)CCCn2cc(-c3ccc(NC(=O)[C@H](NC[C@@H](C)c4ccc(C#N)cc4)c4ccccc4)nc3)cn2)C[C@H]1C(=O)Nc1c(F)cccc1F)C(C)(C)C
LP-1 [7]
  Activity: 87%
LP-1 [8]
  Activity: 93%
LP-1 [3]
  GI50: > 10 µM

## C[C@H](CN[C@@H](C(=O)Nc1ccc(-c2cnn(CCCC(=O)NCCOCCOCCOCCOCCNc3cccc4c3C(=O)N(C3CCC(=O)NC3=O)C4=O)c2)cn1)c1ccccc1)c1ccc(C#N)cc1 (some centres not stated)
[2]
  Activity: Active
[4]
  Activity: Active
